Data reported in patent US20130052137A1, “PARA AMINO BENZOIC ACID BASED NANOTUBES” (priority 2009, published 2013).

melting point [°C]	SMILES
152 to 154	CCCCCCCCCCCC(=O)Nc1ccc(C(=O)Nc2ccccn2)cc1 [Compound 1a, N-(Pyridine-2-yl)-4-dodecanamido-benzamide]
140 to 142	CCCCCCCCCCCCCCCCCC(=O)Nc1ccc(C(=O)Nc2ccccn2)cc1 [Compound 1b, N-(Pyridin-2-yl)-4-stearamidobenzamide]
